# Test system: EGFR (del19/T790M/C797S)
# Assay: HTRF inhibitory activity assay against EGFR (del19/T790M/C797S) enzyme
# Assay type: biochemical
# Method: Inhibitory Activity Assay of the Compounds Disclosed Herein Against EGFR (del19/T790M/C797S), EGFR (L858R/T790M/C797S) or EGFR (WT) Enzymes
# The inhibitory effects of the compounds against EGFR (del19/T790M/C797S), EGFR (L858R/T790M/C797S) or EGFR (WT) enzyme activity was determined by using HTRF. The procedures are as follows:
# The WT or mutant EGFR proteins were incubated with a serially diluted compounds at 28° C. for 10 min followed by addition of biotin-labeled general tyrosine kinase (TK) substrate and ATP. The mixture was incubated at room temperature for 40 min for reaction. After the termination of the reaction, an Eu3+-Cryptate-labeled antibody against TK and streptavidin-XL665 were added and the mixture was incubated at room temperature for 60 min. The luminescences at 615 nm and 665 nm were detected and the ratio of 665/615 was calculated to quantify the level of TK substrate phosphorylation. Inhibition % and IC50 of the compounds were calculated relative to the control group.
row,SMILES,EGFR (del19/T790M/C797S) inhibition (%) (0.3 nM compound)
1,CN1CCN(C2CCN(c3ccc(Nc4nc(NC5CCOCC5)c(-c5ccoc5)nc4C(N)=O)cc3)CC2)CC1 [compound 91],++ (++ indicates an inhibition from 20% to 50%)
2,CN1CCN(C2CCN(c3ccc(Nc4nc(NC5CCOCC5)c(-c5cccc(N)c5)nc4C(N)=O)cc3)CC2)CC1 [compound 92],++ (++ indicates an inhibition from 20% to 50%)
3,CN1CCN(C2CCN(c3ccc(Nc4nc(NC5CCOCC5)c(-c5ccsc5)nc4C(N)=O)cc3)CC2)CC1 [compound 93],++ (++ indicates an inhibition from 20% to 50%)
4,CN1CCN(C2CCN(c3ccc(Nc4nc(NC5CCOCC5)c(-c5ccc(N)cc5)nc4C(N)=O)cc3)CC2)CC1 [compound 95],++ (++ indicates an inhibition from 20% to 50%)
5,CN1CCN(C2CCN(c3ccc(Nc4nc(NC5CCOCC5)c(-c5ccccc5N)nc4C(N)=O)cc3)CC2)CC1 [compound 98],+ (+ indicates an inhibition less than or equal to 20%)
6,CN1CCN(C2CCN(c3ccc(Nc4nc(NC5CCOCC5)c(-c5ccccc5O)nc4C(N)=O)cc3)CC2)CC1 [compound 99],+ (+ indicates an inhibition less than or equal to 20%)
7,CC(=O)Nc1cccc(-c2nc(C(N)=O)c(Nc3ccc(N4CCC(N5CCN(C)CC5)CC4)cc3)nc2NC2CCOCC2)c1 [compound 100],+ (+ indicates an inhibition less than or equal to 20%)
8,CN1CCN(C2CCN(c3ccc(Nc4nc(NC5CCOCC5)c(-c5ccc(C(F)F)cc5)nc4C(N)=O)cc3)CC2)CC1 [compound 101],+ (+ indicates an inhibition less than or equal to 20%)
9,CN1CC=C(c2nc(C(N)=O)c(Nc3ccc(N4CCC(N5CCN(C)CC5)CC4)cc3)nc2NC2CCOCC2)CC1 [compound 102],+ (+ indicates an inhibition less than or equal to 20%)
10,CN1CCN(C2CCN(c3ccc(Nc4nc(NC5CCOCC5)c(-c5ccncc5F)nc4C(N)=O)cc3)CC2)CC1 [compound 103],++ (++ indicates an inhibition from 20% to 50%)
11,CN1CCN(C2CCN(c3ccc(Nc4nc(NC5CCOCC5)c(-c5cccc(C(F)F)c5)nc4C(N)=O)cc3)CC2)CC1 [compound 105],+ (+ indicates an inhibition less than or equal to 20%)
12,CN1CCN(C2CCN(c3ccc(Nc4nc(NC5CCOCC5)c(-c5ccn(C)c(=O)c5)nc4C(N)=O)cc3)CC2)CC1 [compound 106],+ (+ indicates an inhibition less than or equal to 20%)
13,CN1CCN(C2CCN(c3ccc(Nc4nc(NC5CCOCC5)c(-c5ccccc5NS(C)(=O)=O)nc4C(N)=O)cc3)CC2)CC1 [compound 107],+ (+ indicates an inhibition less than or equal to 20%)
14,CN1CCN(C2CCN(c3ccc(Nc4nc(NC5CCOCC5)c(C5=CCNCC5)nc4C(N)=O)cc3)CC2)CC1 [compound 109],+ (+ indicates an inhibition less than or equal to 20%)
15,COc1cc(Nc2nc(NC3CCOCC3)c(-c3ccccc3)nc2C(N)=O)ccc1N1CCC(N2CCN(C)CC2)CC1 [compound 112],+ (+ indicates an inhibition less than or equal to 20%)
16,COc1cc(N2CCC(N3CCN(C)CC3)CC2)ccc1Nc1nc(NC2CCOCC2)c(-c2ccccc2)nc1C(N)=O [compound 113],+ (+ indicates an inhibition less than or equal to 20%)
17,"CN1CCN(C2CCN(c3ccc(Nc4nc(NC5CCOCC5)c(N5CCCCC5)nc4C(N)=O)cc3)CC2)CC1 [compound 116, 3-((4-(4-(4-methylpiperazin-1-yl)piperidin-1-yl)phenyl)amino)-6-(piperidin-1-yl)-5-((tetrahydro-2H-pyran-4-yl)amino)pyrazine-2-carboxamide]",+ (+ indicates an inhibition less than or equal to 20%)
18,CN(C)CCCNc1nc(Nc2ccc(N3CCC(N4CCN(C)CC4)CC3)cc2)c(C(N)=O)nc1-c1ccccc1 [compound 117],+ (+ indicates an inhibition less than or equal to 20%)
19,CN1CCN(C2CCN(c3ccc(Nc4nc(N[C@@H]5CCC[C@@H]5O)c(-c5ccccc5)nc4C(N)=O)cc3)CC2)CC1 [compound 133],++ (++ indicates an inhibition from 20% to 50%)
20,CN1CCN(C2CCN(c3ccc(Nc4nc(N[C@@H]5CCC[C@H]5O)c(-c5ccccc5)nc4C(N)=O)cc3)CC2)CC1 [compound 134],++ (++ indicates an inhibition from 20% to 50%)
21,"CN1CCN(C2CCN(c3ccc(Nc4nc(N[C@@H]5CC[C@H](O)C5)c(-c5ccccc5)nc4C(N)=O)cc3)CC2)CC1 [compound 136, 5-(((1R,3S)-3-hydroxycyclopentyl)amino)-3-((4-(4-(4-methylpiperazin-1-yl)piperidin-1-yl)phenyl)amino)-6-phenylpyrazine-2-carboxamide]",++ (++ indicates an inhibition from 20% to 50%)
22,"CN1CCN(C2CCN(c3ccc(Nc4nc(N[C@H]5CC[C@H](O)C5)c(-c5ccccc5)nc4C(N)=O)cc3)CC2)CC1 [compound 138, 5-(((1S,3S)-3-hydroxycyclopentyl)amino)-3-((4-(4-(4-methylpiperazin-1-yl)piperidin-1-yl)phenyl)amino)-6-phenylpyrazine-2-carboxamide]",++ (++ indicates an inhibition from 20% to 50%)
23,"CN1CCN(C2CCN(c3ccc(Nc4nc(N[C@H]5CC[C@@H](O)C5)c(-c5ccccc5)nc4C(N)=O)cc3)CC2)CC1 [compound 139, 5-(((1S,3R)-3-hydroxycyclopentyl)amino)-3-((4-(4-(4-methylpiperazin-1-yl)piperidin-1-yl)phenyl)amino)-6-phenylpyrazine-2-carboxamide]",++ (++ indicates an inhibition from 20% to 50%)
24,Cc1cc(Nc2nc(NC3CCOCC3)c(-c3ccncc3)nc2C(N)=O)ccc1N1CCC(N2CCN(C3CC3)CC2)CC1 [compound 146],++ (++ indicates an inhibition from 20% to 50%)
25,Cc1cc(-c2nc(C(N)=O)c(Nc3ccc(N4CCC(N5CCN(C)CC5)CC4)c(C)c3)nc2NC2CCOCC2)ccn1 [compound 154],++ (++ indicates an inhibition from 20% to 50%)
26,[2H]C([2H])([2H])N1CCN(C2CCN(c3ccc(Nc4nc(NC5CCOCC5)c(-c5ccccn5)nc4C(N)=O)cc3)CC2)CC1 [compound 206],++ (++ indicates an inhibition from 20% to 50%)
27,NC(=O)c1nc(-c2ccccn2)c(NC2CCOCC2)nc1Nc1ccc(N2CCC(N3CCN(C4CC4)CC3)CC2)cc1 [compound 207],++ (++ indicates an inhibition from 20% to 50%)
28,CN1CCN(C2CCN(c3ccc(Nc4nc(NC5CCOCC56CC6)c(-c5ccccn5)nc4C(N)=O)cc3)CC2)CC1 (stereo not drawn) [compound 255],++ (++ indicates an inhibition from 20% to 50%)
29,CN1CCN(C2CCN(c3ccc(Nc4nc(NC5CCOC6(CC6)C5)c(-c5ccccn5)nc4C(N)=O)cc3)CC2)CC1 (stereo not drawn) [compound 263],++ (++ indicates an inhibition from 20% to 50%)
30,NC(=O)c1nc(-c2ccccn2)c(NC2CCOC3(CC3)C2)nc1Nc1ccc(N2CCC(N3CCN(C4CC4)CC3)CC2)cc1 (stereo not drawn) [compound 264],++ (++ indicates an inhibition from 20% to 50%)

# From US12600714B2, “Substituted pyrazinecarboxamide compounds for treating diseases related to EGFR mutation” (WIGEN BIOMEDICINE TECHNOLOGY (SHANGHAI) CO., LTD., priority 2020, dated 2026)
